Values after ≈ are worked out from the molar mass of the structure shown.
Key:
Assay in all cases: Antibacterial activity in vitro, MIC by broth microdilution
[1] = system: S. epidermidis Step_f50654 Pen S; assay type: cell-based; details: Table 5, Strain ID C: S. epidermidis Step_f50654; unit assumed
Protocol: (§1) Representative compounds of the present invention were assayed in vitro for antibacterial activity against the bacterial isolates listed in Table 1 as follows:
(§2) The bacterial isolates listed in Table 1 were cultivated from −70° C. frozen stocks by two consecutive overnight passages (P1, P2) at 35° C. on 5% blood agar (Remel, Lenexa, Kans.). Chocolate agar (Remel) is used for Haemophilus influenzae. H. influenzae and Streptococcus pneumoniae are incubated in 5-10% CO2.
(§3) To determine the amount of solvent to be used to give the desired final concentration, the formula “weight obtained in mg/final concentration in mg/mL” will be used. It will give the amount of solvent in mL needed to be added to give the desired concentration. For example, if 2.5 mg/mL is the desired concentration and the weight of compound is 13.7 mg, then the amount of solvent to be added is 3.94 mL (13.7 mg/2.5 mg/mL=3.94 mLs). Methanol is used as the solvent to dissolve the test compounds. Further dilution of stock is done in sterile, deioinzed water. Drug stocks are kept frozen at −70° C., protected from light.
(§4) MICs are determined by the broth microdilution method in accordance with the NCCLS guidelines. In brief, organism suspensions are adjusted to a 0.5 McFarland standard to yield a final inoculum between 3×10^5 and 7×10^5 CFU/mL. Drug dilutions and inocula are made in sterile, cation adjusted Mueller-Hinton Broth (CAMHB) (Remel) for all but S. pneumoniae [CAMHB with 2-5% lysed horse blood (Remel)] and H. influenzae [Haemophilus Test Medium (Remel)]. An inoculum volume of 100 μl is added to wells containing 100 μl of broth with 2-fold serial dilutions of drug. All inoculated microdilution trays are incubated in ambient air at 35° C. for 18-24 hours, except for S. pneumoniae, and H. influenzae (both at 5-10% CO2).
(§5) Following appropriate incubation, the MIC is determined and the MIC is defined as the lowest concentration of the drug that prevented visible growth.

S. aureus Stau_29213 = assay type: cell-based; details: Table 5, Strain ID A: S. aureus Stau_29213; unit assumed
Protocol: as §1, §2, §3, §4, §5

[2] = system: S. epidermidis Step_14990; assay type: cell-based; details: Table 5, Strain ID B: S. epidermidis Step_14990; unit assumed
Protocol: as §1, §2, §3, §4, §5

E. faecalis Enfa_29212 = assay type: cell-based; details: Table 5, Strain ID D: E. faecalis Enfa_29212; unit assumed
Protocol: as §1, §2, §3, §4, §5

S. pyogenes Stpy_8668 = assay type: cell-based; details: Table 5, Strain ID E: S. pyogenes Stpy_8668
Protocol: as §1, §2, §3, §4, §5

[3] = system: S. pneumoniae Stpn_Mef 5654; assay type: cell-based, Streptococcus pneumoniae; details: Table 5, Strain ID K: S. pneumoniae Stpn_Mef 5654; unit assumed
Protocol: as §1, §2, §3, §4, §5

[4] = system: S. pneumoniae Stpn_280-962 Pen S; assay type: cell-based, Streptococcus pneumoniae; details: Table 5, Strain ID H: S. pneumoniae Stpn_280-962
Protocol: as §1, §2, §3, §4, §5

[5] = system: S. pneumoniae Stpn_297-749 Pen R; assay type: cell-based, Streptococcus pneumoniae; details: Table 5, Strain ID G: S. pneumoniae Stpn_297-749
Protocol: as §1, §2, §3, §4, §5

[6] = system: S. pneumoniae Stpn_Mef S 3427; assay type: cell-based, Streptococcus pneumoniae; details: Table 5, Strain ID L: S. pneumoniae Stpn_Mef S 3427; unit assumed
Protocol: as §1, §2, §3, §4, §5

[7] = system: S. pneumoniae Stpn_Erm S 4297; assay type: cell-based, Streptococcus pneumoniae; details: Table 5, Strain ID J: S. pneumoniae Stpn_Erm S 4297
Protocol: as §1, §2, §3, §4, §5

[8] = system: S. pneumoniae Stpn_Erm 6849; assay type: cell-based, Streptococcus pneumoniae; details: Table 5, Strain ID I: S. pneumoniae Stpn_Erm 6849; unit assumed
Protocol: as §1, §2, §3, §4, §5

S. pneumoniae Stpn_49619 = assay type: cell-based, Streptococcus pneumoniae; details: Table 5, Strain ID F: S. pneumoniae Stpn_49619
Protocol: as §1, §2, §3, §4, §5

H. influenzae Hain_49247 = assay type: cell-based, Haemophilus influenzae; details: Table 5, Strain ID M: H. influenzae Hain_49247; unit assumed
Protocol: as §1, §2, §3, §4, §5

SMILES | MIC [1] [µg/mL] | MIC (S. aureus Stau_29213) [µg/mL] | MIC [2] [µg/mL] | MIC (E. faecalis Enfa_29212) [µg/mL] | MIC (S. pyogenes Stpy_8668) | MIC [3] [µg/mL] | MIC [4] | MIC [5] | MIC [6] [µg/mL] | MIC ([7]; unit assumed) [µg/mL] | MIC [8] [µg/mL] | MIC (S. pneumoniae Stpn_49619) | MIC (H. influenzae Hain_49247) [µg/mL] | MIC [7] | MIC ([5]; unit assumed) [µg/mL]
CC[C@H]1OC(=O)[C@H](C)C(=O)[C@H](C)[C@@H](OC2O[C@H](C)C[C@H](N(C)C)[C@H]2O)[C@@](C)(OC)C[C@@H](C)C(=O)[C@H](C)[C@H]2N(CCN(C)Cc3cccnc3)C(=O)O[C@]12CC (stereo partly drawn) [Example 23, (3aS,4R,7R,9R,10R,11S,13R,15R,15aR)-3a,4-diethyl-11-methoxy-7,9,11,13,15-pentamethyl-1-{2-[methyl(pyridin-3-ylmethyl)amino]ethyl}-2,6,8,14-tetraoxotetradecahydro-2H-oxacyclotetradecino[4,3-d][1,3]oxazol-10-yl 3,4,6-trideoxy-3-(dimethylamino)-D-xylo-hexopyranoside] | 0.78 (≈ 1.01 µM) | 1.56 (≈ 2.01 µM) | 0.78 (≈ 1.01 µM) | 0.2 (≈ 0.258 µM) | ≦0.05 | 0.4 (≈ 0.516 µM) | ≦0.05 | ≦0.05 | 0.1 (≈ 0.129 µM) | 0.2 (≈ 0.258 µM) | 0.78 (≈ 1.01 µM) | ≦0.05 | 6.25 (≈ 8.06 µM) | – | –
CC[C@H]1OC(=O)[C@H](C)C(=O)[C@H](C)[C@@H](OC2O[C@H](C)C[C@H](N(C)C)[C@H]2O)[C@@](C)(OC)C[C@@H](C)C(=O)[C@H](C)[C@H]2N(CCCCn3cnc(-c4cncnc4)c3)C(=O)O[C@]12CC (stereo partly drawn) [Example 25, (3aS,4R,7R,9R,10R,11S,13R,15R,15aR)-3a,4-diethyl-11-methoxy-7,9,11,13,15-pentamethyl-2,6,8,14-tetraoxo-1-[4-(4-pyrimidin-5-yl-1H-imidazol-1-yl)butyl]tetradecahydro-2H-oxacyclotetradecino[4,3-d][1,3]oxazol-10-yl 3,4,6-trideoxy-3-(dimethylamino)-D-xylo-hexopyranoside] | 0.2 (≈ 0.242 µM) | 0.4 (≈ 0.484 µM) | 0.2 (≈ 0.242 µM) | 0.1 (≈ 0.121 µM) | ≦0.05 | 0.4 (≈ 0.484 µM) | ≦0.05 | ≦0.05 | 0.1 (≈ 0.121 µM) | 0.1 (≈ 0.121 µM) | 0.1 (≈ 0.121 µM) | ≦0.05 | 3.13 (≈ 3.78 µM) | – | –
CC[C@H]1OC(=O)[C@H](C)C(=O)[C@H](C)[C@@H](OC2O[C@H](C)C[C@H](N(C)C)[C@H]2O)[C@@](C)(OC)C[C@@H](C)C(=O)[C@H](C)[C@H]2N(CCCCn3cnc(-c4cnccn4)c3)C(=O)O[C@]12CC (stereo partly drawn) [Example 26, (3aS,4R,7R,9R,10R,11S,13R,15R,15aR)-3a,4-diethyl-11-methoxy-7,9,11,13,15-pentamethyl-2,6,8,14-tetraoxo-1-[4-(4-pyrazin-2-yl-1H-imidazol-1-yl)butyl]tetradecahydro-2H-oxacyclotetradecino [4,3-d][1,3]oxazol-10-yl 3,4,6-trideoxy-3-(dimethylamino)-D-xylo-hexopyranoside] | 0.2 (≈ 0.242 µM) | 0.2 (≈ 0.242 µM) | 0.2 (≈ 0.242 µM) | 0.2 (≈ 0.242 µM) | ≦0.05 | 0.4 (≈ 0.484 µM) | ≦0.05 | ≦0.05 | 0.1 (≈ 0.121 µM) | – | 0.2 (≈ 0.242 µM) | ≦0.05 | 3.13 (≈ 3.78 µM) | ≦0.05 | –
CC[C@H]1OC(=O)[C@@](C)(F)C(=O)[C@H](C)[C@@H](OC2O[C@H](C)C[C@H](N(C)C)[C@H]2O)[C@@](C)(OC)C[C@@H](C)C(=O)[C@H](C)[C@H]2N(CCCCn3cnc4ncccc43)C(=O)O[C@]12CC (stereo partly drawn) [Example 27, (3aS,4R,7S,9R,10R,11S,13R,15R,15aR)-3a,4-diethyl-7-fluoro-1-[4-(1H-imidazo[4,5-b]pyridin-1-yl)butyl]-11-methoxy-7,9,11,13,15-pentamethyl-2,6,8,14-tetra-oxotetradecahydro-2H-oxacyclotetradecino[4,3-d][1,3]oxazol-10-yl 3,4,6-trideoxy-3-(dimethylamino)-D-xylo-hexopyranoside] | 0.1 (≈ 0.122 µM) | 0.1 (≈ 0.122 µM) | 0.1 (≈ 0.122 µM) | 0.05 (≈ 0.0611 µM) | ≦0.025 | 0.4 (≈ 0.489 µM) | ≦0.025 | – | 0.1 (≈ 0.122 µM) | 0.1 (≈ 0.122 µM) | 3.13 (≈ 3.83 µM) | ≦0.025 | 1.56 (≈ 1.91 µM) | – | 0.025 (≈ 0.0306 µM)
CC[C@H]1OC(=O)[C@H](C)C(=O)[C@H](C)[C@@H](OC2O[C@H](C)C[C@H](N(C)C)[C@H]2O)[C@@](C)(OC)C[C@@H](C)C(=O)[C@H](C)[C@H]2N(CCCCn3cnc(-c4ccncc4)c3)C(=O)O[C@]12CC (stereo partly drawn) [Example 28, (3aS,4R,7R,9R,10R,11S,13R,15R,15aR)-3a,4-diethyl-11-methoxy-7,9,11,13,15-pentamethyl-2,6,8,14-tetraoxo-1-[4-(4-pyridin-4-yl-1H-imidazol-1-yl)butyl]tetradecahydro-2H-oxacyclotetradecino[4,3-d][1,3]oxazol-10-yl 3,4,6-trideoxy-3-(dimethylamino)-D-xylo-hexopyranoside] | 0.4 (≈ 0.484 µM) | 0.4 (≈ 0.484 µM) | 0.4 (≈ 0.484 µM) | 0.1 (≈ 0.121 µM) | ≦0.05 | 0.78 (≈ 0.944 µM) | ≦0.05 | ≦0.05 | 0.2 (≈ 0.242 µM) | 0.4 (≈ 0.484 µM) | > 50 | ≦0.05 | 3.13 (≈ 3.79 µM) | – | –
CC[C@H]1OC(=O)[C@H](C)C(=O)[C@H](C)[C@@H](OC2O[C@H](C)C[C@H](N(C)C)[C@H]2O)[C@@](C)(OC)C[C@@H](C)C(=O)[C@H](C)[C@H]2N(CCCCn3cnc(-c4ccc(C)nc4)c3)C(=O)O[C@]12CC (stereo partly drawn) [Example 29, (3aS,4R,7R,9R,10R,11S,13R,15R,15aR)-3a,4-diethyl-11-methoxy-7,9,11,13,15-pentamethyl-1-{4-[4-(6-methylpyridin-3-yl)-1H-imidazol-1-yl]butyl}-2,6,8,14-tetraoxotetradecahydro-2H-oxacyclotetradecino[4,3-d][1,3]oxazol-10-yl 3,4,6-trideoxy-3-(dimethylamino)-D-xylo-hexopyranoside] | 0.4 (≈ 0.476 µM) | 0.4 (≈ 0.476 µM) | 0.2 (≈ 0.238 µM) | 0.2 (≈ 0.238 µM) | ≦0.05 | 0.78 (≈ 0.928 µM) | ≦0.05 | ≦0.05 | 0.2 (≈ 0.238 µM) | 0.2 (≈ 0.238 µM) | 1.56 (≈ 1.86 µM) | ≦0.05 | 6.25 (≈ 7.44 µM) | – | –
